This is an account of results in ChEMBL document CHEMBL1208694, “Aryl sulfonamides containing tetralin allylic amines as potent and selective bradykinin B1 receptor antagonists” (Bioorg Med Chem Lett, 2010).

One may read the IC50 as the concentration needed to halve the response being measured. One may read the Ki as the equilibrium dissociation constant of an inhibitor or competing ligand from its target. Read a high Ki as a looser hold on the target. In general, half-life refers to the time needed for the level to fall by half in the phase considered. Higher therefore signals slow decline. Usually clearance stands for a measure of how efficiently the substance is removed, as volume per time. A higher clearance goes with efficient removal. As usually defined, the bioavailability is the share of a dose that reaches the circulation, judged against a reference dose that is usually intravenous. Higher therefore signals good availability.

Series [1] concerns the target T1, B1 bradykinin receptor (Homo sapiens, UniProt P46663).
T1 sequence (P46663 whole entry): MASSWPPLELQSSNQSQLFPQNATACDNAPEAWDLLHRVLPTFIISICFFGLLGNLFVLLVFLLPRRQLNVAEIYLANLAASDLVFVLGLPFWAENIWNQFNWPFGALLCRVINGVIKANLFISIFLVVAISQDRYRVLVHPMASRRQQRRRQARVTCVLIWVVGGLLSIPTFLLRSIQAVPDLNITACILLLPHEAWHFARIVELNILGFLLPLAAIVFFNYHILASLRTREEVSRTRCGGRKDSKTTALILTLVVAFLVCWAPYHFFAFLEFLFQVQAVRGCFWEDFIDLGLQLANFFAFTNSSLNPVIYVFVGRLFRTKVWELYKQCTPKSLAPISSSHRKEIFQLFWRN
Description: Antagonist activity at human bradykinin B1 receptor assessed as inhibition of Lys-desArg9-BK-induced calcium flux. In kind it is functional. (A change in cytosolic calcium serves as a functional read-out for many receptors and channels.)

For series [2], the target named is T1, B1 bradykinin receptor. The experiment in a line: Displacement of [3H]Lys-desArg9-BK from human bradykinin B1 receptor. On the technique in general: Loss of bound radioactivity is the signal in a displacement assay; it reports binding, not function.
The nature of series [3]: Volume of distribution at steady state in rat at 1 mg/kg, iv. It counts as ADME, organism-based. Further details: dose 1 mg/kg, route intravenous. Conditions: in vivo, read-out: Vdss.
Series [4] can be described thus: Half life in rat at 1 mg/kg, iv. In kind it is ADME, organism-based. Further details: dose 1 mg/kg, route intravenous. The note with it: in vivo.
Series [5] can be described thus: Clearance in rat at 1 mg/kg, iv. In kind it is ADME, organism-based. Further details: dose 1 mg/kg, route intravenous. The note with it: in vivo.
Series [6] can be described thus: Metabolic stability in rat liver microsomes. It counts as ADME, Microsome. Conditions: read-out: Stability.
The nature of series [7]: Oral bioavailability in rat at 10 mg/kg. The note with it: in vivo.

With `CC(CN1CCCCC1)c1ccc2c(c1)CCC[C@H]2NC(=O)C[C@@H](NS(=O)(=O)c1cccc(C(F)(F)F)c1)c1ccccc1` (stereo partly specified), the IC50 at B1 bradykinin receptor [1] is 316 nM. The compound further returned a Ki on B1 bradykinin receptor [2] of 34 nM.
For `O=C(C[C@@H](NS(=O)(=O)c1cccc(C(F)(F)F)c1)c1ccccc1)N[C@@H]1CCCc2cc(C3(CN4CCCCC4)CC3)ccc21`, on B1 bradykinin receptor [1], the IC50 was 88 nM. At B1 bradykinin receptor [2], the Ki amounted to 14 nM.
Turning to `C=C(CN1CCCCC1)c1ccc2c(c1)CCC[C@H]2NC(=O)C[C@@H](NS(=O)(=O)c1cccc(C(F)(F)F)c1)c1ccccc1`, on B1 bradykinin receptor [1], the IC50 turned out to be 41 nM. On B1 bradykinin receptor [2], this compound displayed a Ki of 3.3 nM.
With `C=C(CN1CCCC1)c1ccc2c(c1)CCC[C@H]2NC(=O)C[C@@H](NS(=O)(=O)c1cccc(C(F)(F)F)c1)c1ccccc1`, on B1 bradykinin receptor [1], the IC50 worked out at 9.7 nM. Moreover, in series [3], the Vd turned out to be 3.62 L/kg. Moreover, in series [4], the half-life was 1.5 h. Also, in series [5], the clearance was 30.6 mL/min/kg. The microsomal CLint in series [6] amounted to 282 µL/min/mg. The bioavailability in series [7] was 10%. Moreover, the Ki at B1 bradykinin receptor [2] was determined as 0.7 nM.
For `C=C(CN1CC[C@H](O)C1)c1ccc2c(c1)CCC[C@H]2NC(=O)C[C@@H](NS(=O)(=O)c1cccc(C(F)(F)F)c1)c1ccccc1`, the IC50 on B1 bradykinin receptor [1] was 3.9 nM. Moreover, on B1 bradykinin receptor [2], the affinity corresponds to a Ki of 3.5 nM.
`C=C(CN1CC[C@@H](O)C1)c1ccc2c(c1)CCC[C@H]2NC(=O)C[C@@H](NS(=O)(=O)c1cccc(C(F)(F)F)c1)c1ccccc1`: at B1 bradykinin receptor [1], the IC50 was determined as 15 nM. This compound also came in with a Ki on B1 bradykinin receptor [2] of 12 nM.
Turning to `C=C(CN1CCC1)c1ccc2c(c1)CCC[C@H]2NC(=O)C[C@@H](NS(=O)(=O)c1cccc(C(F)(F)F)c1)c1ccccc1`, the IC50 at B1 bradykinin receptor [1] is 206 nM. The Ki on B1 bradykinin receptor [2] was 12 nM.
`C=C(CN(C)C)c1ccc2c(c1)CCC[C@H]2NC(=O)C[C@@H](NS(=O)(=O)c1cccc(C(F)(F)F)c1)c1ccccc1`: the IC50 on B1 bradykinin receptor [1] worked out at 154 nM. This compound also registered an inhibition constant (Ki) on B1 bradykinin receptor [2] of 78 nM.
Take `C=C(CNCCO)c1ccc2c(c1)CCC[C@H]2NC(=O)C[C@@H](NS(=O)(=O)c1cccc(C(F)(F)F)c1)c1ccccc1`: the IC50 on B1 bradykinin receptor [1] was determined as 32 nM. This compound showed a Ki at B1 bradykinin receptor [2] of 21 nM.
For the compound `C=C(CNCCOC)c1ccc2c(c1)CCC[C@H]2NC(=O)C[C@@H](NS(=O)(=O)c1cccc(C(F)(F)F)c1)c1ccccc1`, the IC50 at B1 bradykinin receptor [1] was determined as 23 nM. On B1 bradykinin receptor [2], this compound came in with an inhibitory constant (Ki) of 42 nM.
For `C=C(CNCC1CC1)c1ccc2c(c1)CCC[C@H]2NC(=O)C[C@@H](NS(=O)(=O)c1cccc(C(F)(F)F)c1)c1ccccc1`, the IC50 at B1 bradykinin receptor [1] stood at 105 nM. On B1 bradykinin receptor [2], this compound displayed a Ki of 16 nM.
Regarding `C=C(CNC(C)(C)C)c1ccc2c(c1)CCC[C@H]2NC(=O)C[C@@H](NS(=O)(=O)c1cccc(C(F)(F)F)c1)c1ccccc1`, the IC50 on B1 bradykinin receptor [1] is 78 nM. The compound further yielded a Ki on B1 bradykinin receptor [2] of 11 nM.
As for `C=C(CNC(C)C)c1ccc2c(c1)CCC[C@H]2NC(=O)C[C@@H](NS(=O)(=O)c1cccc(C(F)(F)F)c1)c1ccccc1`, at B1 bradykinin receptor [1], the IC50 is 42 nM. In addition, the Vd in series [3] stood at 5.86 L/kg. Further, the half-life in series [4] was 2.4 h. In series [5], this compound had a clearance of 33.2 mL/min/kg. Moreover, the microsomal CLint in series [6] came to 240 µL/min/mg. This compound also showed a bioavailability in series [7] of 15%. The affinity on B1 bradykinin receptor [2], expressed as Ki, was 4.6 nM.
For `C=C(CNC1CCC1)c1ccc2c(c1)CCC[C@H]2NC(=O)C[C@@H](NS(=O)(=O)c1cccc(C(F)(F)F)c1)c1ccccc1`, the IC50 on B1 bradykinin receptor [1] stood at 44 nM. The compound further came in with an inhibitory constant (Ki) on B1 bradykinin receptor [2] of 3.4 nM.
Take `C=C(CNC1CCCC1)c1ccc2c(c1)CCC[C@H]2NC(=O)C[C@@H](NS(=O)(=O)c1cccc(C(F)(F)F)c1)c1ccccc1`: on B1 bradykinin receptor [1], the 50% inhibitory concentration (IC50) was 47 nM. Moreover, on B1 bradykinin receptor [2], the affinity, expressed as Ki, was 30 nM.
For the compound `C=C(CN1CCCC1)c1ccc2c(c1)CCC[C@H]2NC(=O)C[C@@H](NS(=O)(=O)c1cccc(C(F)(F)F)c1)c1ccc(F)cc1`, the IC50 on B1 bradykinin receptor [1] was 1.3 nM.
